This is an account of results in BindingDB's records for doi:10.1016/j.bmc.2023.117534 (Zunyi Medical University, 2023).

Structures are written as SMILES.

The term IC50 denotes the concentration needed to halve the response being measured.

Assay [1] can be described thus: Inhibition of wild type EGFR in mouse BaF3 cells assessed as cell growth inhibition measured after 72 hrs by CellTiter-Glo assay.
A short description of assay [2]: Inhibition of EGFR L858R/T790M/C797S triple mutant in human NCI-H1975 cells assessed as cell growth inhibition measured after 72 hrs by CellTiter-Glo assay.

As for `O=C(Nc1nccs1)C(c1ccccc1)N1Cc2ccccc2C1=O` (stereo not drawn), the IC50 in assay [1] was more than 10 µM.

`COc1cc2ncnc(NCc3ccc(NC(=O)C(c4ccccc4)N4Cc5ccccc5C4=O)cc3)c2cc1OCCCN1CCOCC1` (stereo not drawn): the values for the IC50 in assay [1] and in assay [2] were 1.45 µM and 12.4 µM, respectively.
